# “Also recorded” adds a separate entry of the source. No end group written: not given here.
# Tests used:
# [1] = system: C. tropicalis IOC 4560; experiment: Liquid growth inhibition assay, MIC (antifungal); type: cell-based, Candida tropicalis; settings: 37° C., 24 h
# Procedure: (§1) Initially, the antimicrobial activity was determined by liquid growth inhibition assays, as previously described by Pedron et al.^62. Briefly, Peptone Broth and Potato Dextrose Broth (Invitrogen) were used for antibacterial and antifungal assays, respectively. Two-fold serial dilutions of peptides (0.09-50 μmol L^−1) and microorganisms (Serratia marcescens ATCC 4112, Enterobacter cloacae β-12, Micrococcus luteus A270, Bacillus megaterium ATCC 10778, Bacillus subtilis ATCC 6633, Candida albicans MDM8, and Candida tropicalis IOC 4560) were incubated at 37° C. for 18 h (for bacteria) or 24 h (for fungi), and microbial growth was assessed by absorbance measurements at 595 nm. Experiments were performed in three biological repeats.
# [2] = system: Plasmodium gallinaceum sporozoites; experiment: Antiplasmodial activity, fluorescence microscopy; type: cell-based; settings: for P. gallinaceum (% sporozoites at 0.8 μmol L^−1): fluorescent (propidium iodide stained) sporozoites, 37° C., 1 h; for antiplasmodial activity: P. gallinaceum sporozoites, concentration range tested
# Procedure: Method. The activity of the peptides against Plasmodium gallinaceum sporozoites was determined by fluorescence microscopy, as previously described by Silva et. al.^83. Briefly, 9,000 sporozoites were isolated from the glands of infected Aedes aegypti mosquitos and incubated with serially diluted peptides (ranging from 0.1 to 1.6 μmol L^−1) at 37° C. for 1 h. A PBS solution and the surfactant digitonin^84, 85 were used as negative and positive controls, respectively. Propidium iodide was used to stain dead cells. Assays were executed using fluorescence microscopy. Three biological repeats each with three different mosquito batches (n=9) were used.
# [3] = system: B. megaterium ATCC 10778; experiment: Liquid growth inhibition assay, MIC; type: cell-based, Bacillus megaterium; settings: 37° C., 18 h
# Procedure: as §1
# [4] = system: C. albicans MDM8; experiment: Liquid growth inhibition assay, MIC (antifungal); type: cell-based, Candida albicans; settings: 37° C., 24 h
# Procedure: as §1
# [5] = system: M. luteus A270; experiment: Liquid growth inhibition assay, MIC; type: cell-based, Micrococcus luteus; settings: 37° C., 18 h
# Procedure: as §1
# [6] = system: S. epidermidis ATCC 12228; experiment: Liquid growth inhibition assay, MIC; type: cell-based; settings: 37° C., 18 h
# [7] = Resistance to degradation in fetal bovine serum; type: in vitro ADME; settings: fetal bovine serum 25% in water, 37° C.; for remaining at 0.5 h: 30 min, read-out: remaining peptide, 30 min; for remaining at 1 h: read-out: remaining peptide, 1 h; for remaining at 2 h: read-out: remaining peptide, 2 h; for remaining at 4 h: read-out: remaining peptide, 4 h
# Procedure: The resistance to proteolytic degradation of the hybrid peptides was assessed by exposing them for 6 h to serum peptidases in a fetal bovine serum solution^68, 69 (FIG. 5a and Table S4). The peptide degradation kinetics were calculated by integrating the peak area of the peak in relation to the peptide at the beginning of the experiment (time=0) and comparing it to the integrated peak area relative to the peptides after exposure to the enzymes at time points: 0.5, 1, 2, 4, and 6 h (FIG. 5a and Table S4). […] However, AV was resistant to degradation against proteases, with almost 40% peptide content remaining after 4 h of exposure (FIG. 5a and Table S4). […] VP was almost entirely degraded after 30 min (22% of peptide remaining). […] D-amino acid substitutions have been used as alternatives to prevent the degradation of AMPs. For example, Qiu et. al. described a protonectin analog with a D-Lys residue in position 10 as an alternative to protonectin; this analog is not degraded and has higher antimicrobial activity against bacteria and fungi than the original peptide.
# Methods. Stability assays were performed following the protocol described by Torres et al.^71. Briefly, a peptide solution was added to GIBCO fetal bovine serum diluted to 25% in water and kept at 37° C. The degradation kinetics were monitored by liquid chromatography and the percentage of peptide remaining was calculated by integrating the peptide peak area. The experiments were performed as three independent replicates, and aliquots were taken at 0, 0.5, 1, 2, 4, and 6 h.
# [8] = system: E. cloacae β-12; experiment: Liquid growth inhibition assay, MIC; type: cell-based, Enterobacter cloacae; settings: 37° C., 18 h
# Procedure: as §1
# [9] = system: human erythrocytes; experiment: Hemolytic activity assay; type: cell-based; settings: for Hemolytic activity, concentration of peptide needed to kill 10% of red blood cells / MHC: human erythrocytes, 1 h; for MHC: room temperature, concentration with approximately 0% of hemolytic activity
# Procedure: Method. Assays against freshly collected human erythrocytes were performed following protocols described by Pedron et al. 62. Briefly, peptide aliquots at concentrations ranging from 0.1 to 100 μmol L−1 were incubated with a suspension of erythrocytes at room temperature for 1 h. The samples were then centrifuged, and the absorbance of the supernatant was measured at 405 nm. The MHC (maximal non-hemolytic concentration) was determined as the maximal concentration at which 100% of the erythrocytes were viable. The surfactant SDS and PBS buffer were used as positive88, 89 and negative controls, respectively. Sodium heparin was used as an anticoagulant when collecting human blood. Three biological repeats were performed.
# [10] = Circular dichroism, helical fraction (Lifson-Roig); type: physicochemical; settings: peptide 50 μmol L^−1; for Helical fraction (fH) PBS: PBS 10 mmol L^−1, pH 7.4; for Helical fraction (fH) POPC: POPC 10 mmol L^−1; for Helical fraction (fH) POPC:DOPE: POPC:DOPE 3:1, mol:mol; for Helical fraction (fH) POPC:DOPE / Helical fraction (fH) POPC:POPG: 10 mmol L^−1; for Helical fraction (fH) POPC:POPG: POPC:POPG 3:1, mol:mol; for Helical fraction (fH) SDS: SDS 20 mmol L^−1 in water; for Helical fraction (fH) TFE/Water: TFE in water (3:2, v:v)
# Procedure: Method. Circular dichroism (CD) assays were performed with a Spectropolarimeter Jasco Mod. J-815 (JascoCorp). CD spectra were obtained in Far-UV (195-260 nm), and analyzed in the following solutions: water, 2,2,2-trifluoroethanol (TFE) in water (3:2, v:v), phosphate buffer saline (PBS, 10 mmol L^−1, pH 7.4), sodium dodecyl sulfate (SDS 20 mmol L^−1) in water, palmitoyloleoylphosphatidylcholine (POPC; 10 mmol L^−1), palmitoyloleoylphosphatidylcholine:dioleylphosphatidylethanolamine (POPC:DOPE; 3:1, mol:mol, 10 mmol L^−1) and palmitoyloleoylphosphatidylcholine:palmitoyloleoylphosphatidylglycerol (POPC:POPG; 3:1, mol:mol, 10 mmol L^−1) at a peptide concentration of 50 μmol L^−1. These experiments were performed as described in detail by Pedron et al.^62.
# [11] = system: S. marcescens ATCC 4112; experiment: Liquid growth inhibition assay, MIC; type: cell-based, Serratia marcescens; settings: 37° C., 18 h
# Procedure: as §1
# [12] = system: bacterial strains; experiment: Antimicrobial activity over the panel of strains; type: cell-based; settings: range of concentrations tested
# Procedure: as §1
# Method. The minimal inhibitory concentration (MIC) against the ESKAPE pathogens was determined using the broth microdilution method^81, 82 in Luria-Bertani (LB) medium. The MIC value was defined as the lowest concentration of peptide at which no microbial growth was observed. A. baumannii ATCC19606, E. coli ATCC11775, E. coli AIC221, E. coli AIC222, K. pneumoniae ATCC13883, S. aureus ATCC12600 P. aeruginosa PAO1, and P. aeruginosa PA14 were incubated on agar plates, and after 24 h, three isolated colonies were inoculated to 5 mL of Luria-Bertani (LB) broth and maintained at 37° C. overnight with shaking. Peptides were then added to 96-well polystyrene microtiter plates at concentrations ranging from 0 to 128 μmol L^−1, and 5×10^5 CFU mL^−1 of each bacterium was inoculated in each well. The plates were incubated at 37° C. for 24 h. Bacterial growth was measured using a microplate reader at 610 nm. Three independent replicates were performed.
# [13] = bovine, fetal bovine serum, 25% in water
# [14] = bovine, fetal bovine serum, 25% in water, 4 h
Substance,MIC C. tropicalis IOC 4560 [1] [µM],P. gallinaceum (% sporozoites at 0.8 μmol L^−1) [2] [%],antiplasmodial activity [2],MIC B. megaterium ATCC 10778 [3] [µM],MIC C. albicans MDM8 [4] [µM],MIC M. luteus A270 [5] [µM],MIC S. epidermidis ATCC 12228 [6] [µM],"remaining at 0.5 h [7, 13] [%]","remaining at 1 h [7, 13] [%]","remaining at 2 h [7, 13] [%]","remaining at 4 h [7, 14] [%]",MIC E. cloacae β-12 [8] [µM],"Hemolytic activity, concentration of peptide needed to kill 10% of red blood cells [9] [µmol/L]",MHC [9] [µmol/L],Helical fraction (fH) PBS [10],Helical fraction (fH) POPC [10],Helical fraction (fH) POPC:DOPE [10],Helical fraction (fH) POPC:POPG [10],Helical fraction (fH) SDS [10],Helical fraction (fH) TFE/Water [10],further results
"GLGALLNVIKSGL-NH2 [AV, Gly-Leu-Gly-Ala-Leu-Len-Asn-Val-Ile-Lys-Ser-Gly-Leu]",50,90,exhibited antiplasmodial activity,>50,50,6.3,>50,~40,~40,~40,~40,>50,100,>100,0.05,0.03,0.08,0.04,0.31,0.42,"remaining peptide, 4 h ([7]; 4 h): ~40%; hemolytic activity ([9]; 0.1 to 100 μmol L^−1): minimal hemolytic activity; Helical fraction (fH) Water [10]: 0.08; MIC S. marcescens ATCC 4112 [11]: 50 µM; antimicrobial activity [12]: lower antimicrobial activities than the corresponding template peptides"
"SLGALINVLKSGG-NH2 [DV, Ser-Leu-Gly-Ala-Leu-Ile-Asn-Val-Leu-Lys-Ser-Gly-Gly]",>50,31,did not exhibit significant antiplasmodial activity; also recorded: did not present antiplasmodial activity,>50,>50,>50,>50,~50,~50,~50,~50,>50,0.1,0.1,0.12,0.08,0.11,0.41,0.62,0.90,"remaining at 6 h ([7]; bovine, fetal bovine serum, 25% in water, 6 h, read-out: remaining peptide, 6 h): ~50%; Helical fraction (fH) Water [10]: 0.11; MIC S. marcescens ATCC 4112 [11]: >50 µM; antimicrobial activity [12]: No antimicrobial activities were observed; also recorded: did not exhibit antimicrobial activity"

# — patent US20260250337A1, “HYBRID ANTIMICROBIAL PEPTIDES” (UNIVERSIDADE FEDERAL DO ABC, priority 2023, published 2026)
